Source: patent US11214803B2, “Modulators of YAP1 expression” (Ionis Pharmaceuticals, Inc., priority 2019, dated 2022)

Legend:
Yap1 mRNA [1] = experiment: Dose-dependent inhibition of human Yap1 in A-431 cells (Example 24, 11,000 cells per well, RTS36584, normalized to GAPDH); format: cell-based; conditions: free uptake, 48 hours; for Yap1 mRNA, % UTC: RTS36584, normalized to GAPDH; for IC50: linear regression on a log/linear plot
Procedure: Modified oligonucleotides described in the studies above were tested at various doses in A-431 cells. Cultured A-431 cells at a density of 11,000 cells per well were treated using free uptake with modified oligonucleotides diluted to concentrations described in the tables below. After approximately 48 hours, Yap1 mRNA levels were measured as previously described using the Human Yap1 primer-probe set RTS36584. Yap1 mRNA levels were normalized to GAPDH content, as measured by primer probe set RTS104 (forward sequence […], designated herein as SEQ ID NO.: 17; reverse sequence […], designated herein as SEQ ID NO.: 18; probe sequence […], designated herein as SEQ ID NO.: 19). Results are presented in the tables below as percent control of the amount of Yap1 mRNA relative to untreated control cells (% UTC). IC50s were calculated using a linear regression on a log/linear plot of the data in excel.

[2] = cynomolgus monkey, in vivo, sc, 35 mg/kg
Yap1 mRNA [3] = experiment: Inhibition of human Yap1 mRNA in SNU449 hepatocellular carcinoma xenograft tumors (Example 26); format: in vivo; conditions: SNU449 xenografts in NSG mice, 50 mg/kg twice weekly for five days, relative to PBS treated animals
Summary of the method: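 Female NSG mice bearing subcutaneous SNU449 xenografts (about 100 mm^3) dosed with modified oligonucleotides at 50 mg/kg twice weekly for five days, four per group. Tumour Yap1 mRNA measured by RT-qPCR, normalized to actin-beta, expressed as % of PBS-treated controls.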

[4] = Tolerability in Sprague-Dawley rats, plasma chemistry markers (Example 22); format: in vivo; conditions: male Sprague-Dawley rats, 50 mg/kg s.c. weekly for 6 weeks (7 doses), 48 hours after last dose
Procedure: Sprague-Dawley rats are a multipurpose model used for safety and efficacy evaluations. The rats were treated with Ionis modified oligonucleotides from the studies described in the Examples above and evaluated for changes in the levels of various plasma chemistry markers.

[5] = Tolerability in Sprague-Dawley rats, body and organ weights (Example 22); format: in vivo; conditions: male Sprague-Dawley rats, 50 mg/kg s.c. weekly for 6 weeks (7 doses); for Kidney weight / Liver weight / Spleen weight: end of study; for body weight: terminal, prior to necropsy
Procedure: Terminal body weight was measured prior to necropsy. Ionis oligonucleotides that caused any changes in organ weights outside the expected range for modified oligonucleotides were excluded from further studies.

[6] = Cynomolgus monkey tolerability, urine analysis (Example 34); conditions: cynomolgus monkeys, 35 mg/kg subcutaneously, day 44
Procedure: Prior to the study, the monkeys were kept in quarantine during which the animals were observed daily for general health. The monkeys were 2-4 years old and weighed 2-4 kg. Eleven groups of 4 randomly assigned male cynomolgus monkeys each were injected subcutaneously with Ionis oligonucleotide or saline in a clock-wise rotation between four different sites on the back. Following loading doses on days 1, 3, 5 and 7, the monkeys were dosed once per week (on days 14, 21, 28, 35, and 42) with 35 mg/kg of Ionis oligonucleotide.
Food was removed overnight the day before fresh urine collection, but water was supplied. Fresh urine samples for urinalysis and urine chemistry were collected from all animals using a clean cage pan on wet ice (first in the morning) on day 44. Urinalysis/Urine Chemistry parameters creatinine (UCRE), microprotein (UTP), urine microalbumin (UALB), and protein/creatinine (P/C) ratio were measured using a Toshiba 120FR automated chemistry analyzer (Toshiba Co., Japan).

[7] = Cynomolgus monkey tolerability, pro-inflammatory proteins analysis, Complement C3 and CRP (Example 34); format: in vivo; conditions: cynomolgus monkeys, 35 mg/kg subcutaneously; for CRP: day 44
Procedure: To evaluate any inflammatory effect of Ionis oligonucleotides in cynomolgus monkeys, blood samples were taken for analysis. The monkeys were fasted overnight prior to blood collection. On day 42 (pre-dose and 24 hours post-dose), approximately 0.8 mL of blood was collected from each animal and put into tubes without anticoagulant for serum separation. […] Complement C3 were measured using a Toshiba 120 FR NEO chemistry analyzer (Toshiba Co., Japan). […] Another marker of inflammation, C-Reactive Protein (CRP) was tested together with the clinical chemistry parameters tested for liver function above.

Yap1 mRNA [8] = experiment: Yap1 mRNA in SCC25 cells, RNA analysis (Example 25); format: cell-based, human; conditions: free uptake, 48 hours, RTS4814, normalized to actin-beta
Procedure: (§1) Modified oligonucleotides described in the studies above were tested at various doses in squamous cell carcinoma cell SCC25. A control oligonucleotide 792169 (a 3-10-3 cET gapmer with a full phosphorothioate backbone, […], designated herein as SEQ ID No.: 2940; is not complementary to any known human gene) was also tested.
Cultured SCC25 cells at a density of 5,000 cells per well were treated using free uptake with modified oligonucleotides diluted to concentrations described in the tables below. After approximately 48 hours, Yap1 mRNA levels were measured as previously described using the Human Yap1 primer-probe set RTS4814. Yap1 mRNA levels were normalized to actin-beta content, as measured by primer probe set RTS5002 (forward sequence […], designated herein as SEQ ID NO.: 20; reverse sequence […], designated herein as SEQ ID NO.: 21; probe sequence […], designated herein as SEQ ID NO.: 22). Results are presented in the tables below as percent control of the amount of Yap1 mRNA relative to untreated control cells (% UTC).

SCC25 cells = experiment: Cell proliferation assay in SCC25 cells, CellTiter-Glo (Example 25); format: cell-based, human; conditions: free uptake, 144 hours
Procedure: as §1
Cultured SCC25 cells at a density of 1,000 cells/well were treated using free uptake with modified oligonucleotides diluted to concentrations described in the tables below. After approximately 144 hours, cell proliferation was measured using the luminescent cell viability CellTiter-Glo® 2.0 Assay (Promega). Results are presented in the tables below as percent control of the amount of luminescence in samples treated with modified oligonucleotides relative to untreated control cells (% UTC).

Substance	Yap1 mRNA, % UTC (Yap1 mRNA [1]; 0.002 μM) [% UTC]	Yap1 mRNA, % UTC (Yap1 mRNA [1]; 0.008 μM) [% UTC]	Yap1 mRNA, % UTC (Yap1 mRNA [1]; 0.04 μM) [% UTC]	Yap1 mRNA, % UTC (Yap1 mRNA [1]; 0.2 μM) [% UTC]	Yap1 mRNA, % UTC (Yap1 mRNA [1]; 1 μM) [% UTC]	A/G ratio [2]	Yap1 mRNA in tumors, % control (Yap1 mRNA [3]) [% control]	ALT [4] [U/L]	AST [4] [U/L]	BUN [4] [mg/dL]	TBIL [4] [mg/dL]	Kidney weight [5] [g]	Liver weight [5] [g]	Spleen weight [5] [g]	body weight [5] [g]	UALB [6] [mg/dL]	UCRE [6] [mg/dL]	UTP [6] [mg/dL]	Complement C3 ([7]; Day 42 (pre-dose)) [mg/dL]	Complement C3 ([7]; day 42 (24 hr post-dose)) [mg/dL]	other results
1198728 (TATTAGAGTATGTGGC; modified gapmer, further chemistry not given here) [compound 1198728]	1	4	27	85	87	1.3	64	54	71	22	0.18	2.9	15	1.4	381	0.3	70	16	93	90	IC50 (Yap1 mRNA [1]): 20 nM; CRP [7]: 4.0 mg/L; Yap1 mRNA, % UTC (Yap1 mRNA [8]; 0.04 μM): 71 % UTC; Yap1 mRNA, % UTC (Yap1 mRNA [8]; 0.2 μM): 31 % UTC; Yap1 mRNA, % UTC (Yap1 mRNA [8]; 1 μM): 15 % UTC; Yap1 mRNA, % UTC (Yap1 mRNA [8]; 5 μM): 7 % UTC; cell proliferation (luminescence) % UTC (SCC25 cells; 0.04 μM): 88 % UTC; cell proliferation (luminescence) % UTC (SCC25 cells; 0.2 μM): 61 % UTC; cell proliferation (luminescence) % UTC (SCC25 cells; 1 μM): 30 % UTC; cell proliferation (luminescence) % UTC (SCC25 cells; 5 μM): 20 % UTC
1198605 (GTAATATTGCAATCTG; modified gapmer, further chemistry not given here) [compound 1198605]	0	2	26	57	96	1.5	55	46	76	18	0.33	3.6	18	2.1	372	0.4	69	12	105	95	IC50 (Yap1 mRNA [1]): 20 nM; CRP [7]: 4.2 mg/L; Yap1 mRNA, % UTC (Yap1 mRNA [8]; 0.04 μM): 48 % UTC; Yap1 mRNA, % UTC (Yap1 mRNA [8]; 0.2 μM): 23 % UTC; Yap1 mRNA, % UTC (Yap1 mRNA [8]; 1 μM): 10 % UTC; Yap1 mRNA, % UTC (Yap1 mRNA [8]; 5 μM): 5 % UTC; cell proliferation (luminescence) % UTC (SCC25 cells; 0.04 μM): 77 % UTC; cell proliferation (luminescence) % UTC (SCC25 cells; 0.2 μM): 39 % UTC; cell proliferation (luminescence) % UTC (SCC25 cells; 1 μM): 23 % UTC; cell proliferation (luminescence) % UTC (SCC25 cells; 5 μM): 13 % UTC
1198623 (CTAAGTAAGGTTTCCC; modified gapmer, further chemistry not given here) [compound 1198623]	2	5	28	72	96	1.4	60	96	87	21	0.24	3.6	20	1.9	472	0.2	44	10	105	101	CRP [7]: 2.0 mg/L; Yap1 mRNA, % UTC (Yap1 mRNA [8]; 0.04 μM): 61 % UTC; Yap1 mRNA, % UTC (Yap1 mRNA [8]; 0.2 μM): 31 % UTC; Yap1 mRNA, % UTC (Yap1 mRNA [8]; 1 μM): 15 % UTC; Yap1 mRNA, % UTC (Yap1 mRNA [8]; 5 μM): 10 % UTC; cell proliferation (luminescence) % UTC (SCC25 cells; 0.04 μM): 84 % UTC; cell proliferation (luminescence) % UTC (SCC25 cells; 0.2 μM): 55 % UTC; cell proliferation (luminescence) % UTC (SCC25 cells; 1 μM): 36 % UTC; cell proliferation (luminescence) % UTC (SCC25 cells; 5 μM): 29 % UTC
1198831 (CACTTTTACATTAGGA; chemically modified gapmer, further chemistry not given here) [compound 1198831]	2	6	28	72	83	1.4	67	54	69	23	0.20	3.3	19	2.0	426	0.1	46	13	81	81	CRP [7]: 1.1 mg/L; Yap1 mRNA, % UTC (Yap1 mRNA [8]; 0.04 μM): 63 % UTC; Yap1 mRNA, % UTC (Yap1 mRNA [8]; 0.2 μM): 36 % UTC; Yap1 mRNA, % UTC (Yap1 mRNA [8]; 1 μM): 16 % UTC; Yap1 mRNA, % UTC (Yap1 mRNA [8]; 5 μM): 14 % UTC; cell proliferation (luminescence) % UTC (SCC25 cells; 0.04 μM): 88 % UTC; cell proliferation (luminescence) % UTC (SCC25 cells; 0.2 μM): 54 % UTC; cell proliferation (luminescence) % UTC (SCC25 cells; 1 μM): 25 % UTC; cell proliferation (luminescence) % UTC (SCC25 cells; 5 μM): 21 % UTC
1198872 (TGTATGTCAGAAGAGT; chemically modified gapmer, further chemistry not given here) [compound 1198872]	1	3	19	70	94	1.3	52	109	134	18	0.20	3.4	17	1.3	417	0.3	111	14	103	96	CRP [7]: 1.1 mg/L; Yap1 mRNA, % UTC (Yap1 mRNA [8]; 0.04 μM): 54 % UTC; Yap1 mRNA, % UTC (Yap1 mRNA [8]; 0.2 μM): 22 % UTC; Yap1 mRNA, % UTC (Yap1 mRNA [8]; 1 μM): 9 % UTC; Yap1 mRNA, % UTC (Yap1 mRNA [8]; 5 μM): 7 % UTC; cell proliferation (luminescence) % UTC (SCC25 cells; 0.04 μM): 82 % UTC; cell proliferation (luminescence) % UTC (SCC25 cells; 0.2 μM): 37 % UTC; cell proliferation (luminescence) % UTC (SCC25 cells; 1 μM): 22 % UTC; cell proliferation (luminescence) % UTC (SCC25 cells; 5 μM): 18 % UTC
